Measured values published in PMC8068288, “Novel Thiol Containing Hybrid Antioxidant-Nitric Oxide Donor Small Molecules for Treatment of Glaucoma” (Antioxidants, 2021).
Read-outs that look alike come from different tables or passages of the source.

Experiments:
[1] = Ocular biodistribution after SA-9 and SA-9 NPs eye drop; format: in vivo; details: topical, 30 µL of 2% SA-9 solution, mouse, 1 h after single eye drop of 2% SA-9 solution
[2] = Total nitrite/NO release by Griess assay in buffer (aqueous stability); format: physicochemical; details: even after 3 days
Procedure: The total nitrite released from the compounds in buffer and in cell supernatant were measured by Griess assay as reported by us previously. In brief, compounds (SA-2, SA-9, and SA-10) in buffer at different concentrations (1 mM, 500 µM, 250 µM 125 µM, 62.5 µM, 31.25 µM, and 15.625 µM) or supernatant collected from Human transformed trabecular meshwork (NTM-5) cells were added to a 96-well plate. 1% Sulphanilamide in 5% phosphoric acid and 0.1% N-1-napthylethylenediamine dihydrochloride (NED) were added to experimental samples sequentially at room temperature and away from light. SIN-1 was used as reference standard. […]

NTM-5 cells = assay: In vitro cell viability (MTT) assay; details: NTM-5 cells, 24 h, up to 1000 µM
Procedure: NTM-5 cells (6000 cells/well) were seeded in 96-well plates to confluency. […] The cell viability and proliferation were measured using MTT assays (CellTiter 96® AQueous One Solution Cell Proliferation Assay, Promega Madison, WI, USA) following manufacturer instruction. The experiments were repeated twice with four technical replicates.

[3] = Superoxide anion radical scavenging assay (pyrogallol/WST-1) in buffer; format: biochemical
Procedure: The ROS scavenging ratio was determined using a chemical assay where WST-1 was used as superoxide scavenger produced by pyrogallol following a reported protocol. Briefly, the superoxide anion radical scavenging activity was determined spectrophotometrically by measuring the formation of WST-1 formazan at 450 nm. WST-1 (40 µL, 50 µM) was added to the compounds (or corresponding solution) in a final volume of 160 µL in 50 mM ammonium hydrogen carbonate buffer, 0.5 mM EDTA, pH 9.3. Reaction was launched by adding 40 µL 1 mM pyrogallol. The operation was based on the 96-well microplate, and measurement was performed at different time points under 37 °C by Cytation5 Microplate Reader. Baicalein (1 mM) was used as positive control. Compounds SA-2, SA-9, and SA-10 were used in concentrations ranging from 1 µM, 10 µM, 100 µM, and 1000 µM. The superoxide anion radical scavenging ratio % was calculated according to the following formula:Scavenging ratio (%) = A0 − (A1 − A2)/A0 × 100%

Question: With `Cl.[NH-]c1c[n+](C2CCSCC2)no1` [SA-9, (3-(tetrahydro-2H-thiopyran-4-yl)-1,2,3-oxadiazol-3-ium-5-yl)amide hydrochloride] as the molecule, how does the concentration at 1 h ([1]; choroid + sclera, read-out: concentration of SA-9 in choroid + sclera) read?
Answer: The concentration at 1 h was 28900 ± 2500 ng/g.

Question: What about the concentration at 1 h ([1]; lens, read-out: concentration of SA-9 in lens) of the same molecule?
Answer: Its concentration at 1 h is 20500 ± 8300 ng/g.

Question: What about the concentration at 1 h ([1]; optic nerve, read-out: concentration of SA-9 in ON) of the same molecule?
Answer: The concentration at 1 h was 1300 ± 90 ng/g.

Question: What about the concentration at 1 h ([1]; retina, read-out: concentration of SA-9 in retina) of the same molecule?
Answer: The concentration at 1 h was 8250 ± 10200 ng/g.

Question: What about the “NO release in buffer” value [2] of the same molecule?
Answer: Its value is “did not observe any NO release”.

Question: And the cytotoxicity (NTM-5 cells)?
Answer: Its cytotoxicity is “no cytotoxicity”.

Question: What about the “AUC0–2.5 h of % superoxide scavenging response” value ([3]; 1 mM compound, pyrogallol 1 mM, buffer) of the same molecule?
Answer: The value was 1355 ± 42.62.

Question: What about the “earliest time of superoxide (O2−) radical scavenging” value ([3]; buffer solution and TM cells) of the same molecule?
Answer: Its value is 7 min.

Question: And the superoxide radicals scavenged ([3]; buffer, dose response 1-1000 µM)?
Answer: Its superoxide radicals scavenged is 16–40%.

Question: What about the “AUC0-15 of % superoxide scavenging response” value ([3]; different concentrations 1-1000 µM, 15 minutes time point, buffer) of the same molecule?
Answer: The value was 5972± 834.9.
